Marks after values point to notes of the source that are not given here.
Columns and labels:
[1] = test system: Guinea-pigs sensitized to ovalbumin; test: Guinea pig model of asthma, airway hyper-reactivity 24 h after OVA challenge; format: in vivo; details: for Cdyn, % increase from that of the positive control / RL, % decrease from that of the positive control: Dexamethasone 15 mg/kg, glycan compounds 10 mg/kg, intratracheal microspray
Protocol: A guinea pig model of asthma was used. Guinea-pigs (8 per group) were sensitized to ovalbumin by two intraperitoneal injections of ovalbumin (grade V, 20 μg) in aluminium hydroxide gel on Days 1 and 11. On day 20 (24 hours prior to assessing airway hyper-reactivity (AHR)) each animal received a challenge dose of OVA—this took the form of a 1 hour aerosol exposure of OVA (10 μg). The negative control animals received, no sensitization and no challenge. The positive controls were sensitized and challenged but were either given no further treatment or were treated with vehicle (saline). Test compounds (PPS and the sulfated xylan pentasaccharide) and vehicle were administered by intratracheal administration as an aqueous microspray using a Penn Century device. The device used was the FMJ250 high pressure syringe and a 1A-1C microspray delivery tube. The particle size delivery goes up to 32 μm. During the study the volume delivered was 100 ul for all test formulations. The test compounds were administered 30 min before challenge with OVA. The animals underwent surgery 24 hours after challenge to insert a cannula into the trachea, the cannula was connected to the instrumentation which measured pressure and changes in airflow. After surgery the animals were allowed to stabilize for 10 min before baseline readings were taken. Bronchoconstriction was evoked with aerosolized methacholine (10 mg/ml and 30 mg/ml) for 20 seconds. The difference between baseline readings and that obtained after methacholine were used to calculate Cdyn and RL. Thus, measurements of lung function were taken approximately 25 hours after the drug was administered. Both pentosan polysulfate and the sulfated xylan pentasaccharide when administered at 10 mg/kg were effective in reducing the airway hyper-reactivity readings. Their efficacy was approximately equivalent to that usually seen with 7.5 mg/kg of dexamethasone in this model.

Human leukocyte elastase = biological target: T1, Human leukocyte elastase (Homo sapiens, UniProt P08246); test: Elastase assay with fluorogenic substrate; format: biochemical; details: fluorogenic substrate MeOSuc-Ala-Ala-Pro-Val-amido-methylcoumarin, pH 7.4, 37° C., 60 minutes; read-out: IC50, inhibition of human leukocyte elastase activity
T1 sequence (P08246 30-267): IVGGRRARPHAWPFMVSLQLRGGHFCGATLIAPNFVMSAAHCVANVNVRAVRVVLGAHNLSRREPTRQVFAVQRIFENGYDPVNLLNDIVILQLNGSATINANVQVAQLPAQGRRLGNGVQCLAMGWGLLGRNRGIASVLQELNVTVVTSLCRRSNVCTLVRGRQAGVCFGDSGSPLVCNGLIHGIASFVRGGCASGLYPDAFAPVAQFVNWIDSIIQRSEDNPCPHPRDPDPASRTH
Protocol: Elastase is a protein that is a potential target for the treatment of COPD. Elastase assays were performed in 96-well plastic microplates for easy quantification by the fluorescent plate reader. Human leukocyte elastase (5 nM/well) was incubated in the presence of absence of pentosan polysulfate, or other sulfated polysaccharides, with the fluorogenic substrate MeOSuc-Ala-Ala-Pro-Val-amido-methylcoumarin (20 μM/well) in a sodium phosphate buffer, pH 7.4. The mixture was incubated at 37° C. for 60 minutes before the reaction was stopped by the addition of 10 μl/well of […] acetic acid and the mixture transferred to a 96-well microplate with fluorescence being measured using an excitation wavelength of 355 nm and an emission wavelength of 460 nm. Various concentrations of inhibitors were used to allow the calculation of the concentration of polysaccharide required to inhibit enzyme activity by 50% (IC50).

[2] = biological target: recombinant human IL-2 (rhIL-2) (Homo sapiens, UniProt P60568); test: IL-2 dependent CTL-Luc cell proliferation; format: cell-based
Sequence of recombinant human IL-2 (rhIL-2) (P60568 21-153): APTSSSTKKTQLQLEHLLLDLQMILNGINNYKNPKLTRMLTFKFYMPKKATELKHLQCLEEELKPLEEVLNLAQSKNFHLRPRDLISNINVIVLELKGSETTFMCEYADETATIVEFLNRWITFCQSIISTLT
Text: The murine cytotoxic T lymphocytic line (CTLL) is a subclone of T cells derived from a C57bl/6 mouse. The cells require interleukin-2 (IL-2) for growth and are used to assay for its presence in conditioned media. The cells are responsive to both murine and human IL-2. CTLL cells have been transfected with the firefly luciferase gene contained in the expression vector, pPGK-puromycin-luciferase (Coombe et al, 1998, supra). The positive transfectants are cloned to produce a line with good luciferase expression and these cells are called CTL-Luc. The proliferation assays are carried out in 96-well microplates suitable for such assays (Falcon). […] The cells are counted with a Coulter Z2 Particle Counter and Size Analyzer (Coulter Electronics, England) and routinely 1.6×10^4 cells are added to microplate wells that contain either no recombinant human IL-2 (rhIL-2) (negative control) or various dilutions of rhIL-2. When the effect of PPS, or other sulfated polysaccharides is to be measured, the wells also contain various concentrations of these molecules.
The CTL-Luc cells proliferate for 24 hours at 37° C. in a humidified atmosphere, after which the luciferase activity is measured by the addition of 50 μl of luciferase substrate buffer (50 mM Tris-HCl, pH 7.8, 15 mM MgSO4, 33.3 mM DTT, 0.1 mM EDTA, 0.5 mM Na-luciferin, 0.5 mM ATP, 0.25 mM lithium Co A and 0.5% v/v Triton X-100). […]

Substance: Pentosan polysulfate [PPS]
- Reduction of airway hyper-reactivity readings (in words) ([1]; 10 mg/kg intratracheal microspray 30 min before OVA challenge): effective
- Cdyn, % increase from that of the positive control ([1]; MCh 10 mg/ml): 38% *
- RL, % decrease from that of the positive control ([1]; MCh 10 mg/ml): 32%
- Cdyn, % increase from that of the positive control ([1]; MCh 30 mg/ml): 49% **
- RL, % decrease from that of the positive control ([1]; MCh 30 mg/ml): 35% **
- IC50 (Human leukocyte elastase): ~1800 nM
- Effect on proliferation of CTL-Luc cells obtained with rhIL-2 ([2]; 10 μg/ml or 1 μg/ml, rhIL-2 1.25 ng/ml, FIG. 9): no effect
- Toxicity to cytokine dependent lymphocytic cell lines ([2]; IL-2 and GM-CSF responsive cell lines, 10 and 1 μg/ml): not toxic

Reference: patent US20180078576A1, “SULPHATED XYLANS FOR TREATMENT OR PROPHYLAXIS OF RESPIRATORY DISEASES” (Paradigm Biopharmaceuticals Limited, priority 2007, published 2018)
